Measurements reported in patent publication US20240018230A1, “METHODS FOR TREATING OR MODULATING AN INFLAMMATORY RESPONSE” (St. Jude Children's Research Hospital, Inc., priority 2020, published 2024).

B1: IFN-γ: recombinant IFN-γ protein (Peprotech) (protein, UniProt P01579 24-161, looked up)
Interferon gamma: QDPYVKEAENLKKYFNAGHSDVADNGTLFLGILKNWKEESDRKIMQSQIVSFYFKLFKNFKDDQSIQKSVETIKEDMNVKFFNSNKKKRDDFEKLTNYSVTDLNVQRKAIHELIQVMAELSPAAKTGKRKRSQMLFRG

Experiments:
[1] = test system: bone marrow-derived macrophages (BMDMs); experiment: Real-time imaging of cell death (propidium iodide, INCUCYTE) in BMDMs; format: cell-based, mouse; settings: for inhibition of cell death in response to TNF-α and IFN-γ treatment: wild-type BMDMs co-treated with 1 mM L-NAME or 100 μM 1400W; for induction of cell death in BMDMs: standard cytokine concentrations (25 ng/mL TNF-α, 50 ng/mL IFN-γ)
[2] = test system: colon cancer and melanoma cell lines; experiment: NO inhibition of TNF-α plus IFN-γ-induced cancer cell death; format: cell-based, human; settings: 1 mM L-NAME or 100 μM 1400W
Description: Cell Culture and Stimulation Methods. […] Cancer cells were seeded a day before stimulation. On the day of stimulation, the cells were washed once with warm and sterile DPBS, followed by treatment with different cytokines for 48 hours. The concentration of the cytokines used were 25 ng/mL of IL-6 (Peprotech), IL-8 (Peprotech), IL-18 (R&D), IL-15 (Peprotech), IL-1α (Peprotech), IL-1β (Peprotech), IL-2 (Peprotech), TNF-α (Peprotech), and IFN-γ (Peprotech). For the inhibition of nitric oxide (NO), cancer cells were co-treated with 1 mM of L-NAME hydrochloride (TOCRIS) or 100 μM of […] dihydrochloride (Enzo Life Sciences) along with the cytokines. For inhibition of the JAK signaling pathway, the cancer cells were co-treated with 5 μM of baricitinib (Achemblock) all through the experiment. Cell Death Analysis. The kinetics of cell death were measured using a two-color INCUCYTE® S3 imaging system (Essen Biosciences). […] A series of images were acquired at 1-hour time intervals for up to 48 hours post-treatment with a 20× objective and analyzed using the INCUCYTE® S3 software, which allows precise analysis of the number of dye-positive dead cells present in each image. […]

[3] = test system: BMDMs; experiment: Immunoblot analysis of cell death effectors in BMDMs; format: cell-based, mouse; settings: for cleavage of caspase-3, -7 and -8: single cytokines compared with the combination
[4] = test system: HCT-116 colon cancer cells; experiment: Western blot of PANoptosis markers in HCT-116; format: cell-based, human
Description: Western Blot Analysis. For the western blot analyses of caspases, cancer cells were seeded a day before stimulation at a density of 0.5×10^6 cells/well in 6-well cell culture plates. The proteins from the indicated cell types were collected by combining cell lysates with culture supernatants with caspase lysis buffer (with 1× protease inhibitors, 1× phosphatase inhibitors, 10% NP-40, and 25 mM DTT) and 4× sample loading buffer (containing SDS and 2-mercaptoethanol). For the western blot analysis of all other signaling proteins, the cells were lysed in RIPA buffer, supplemented with protease inhibitor and phosphoStop as per the manufacturer's instructions and sample loading buffer. […]

[5] = In vivo TNF-α and IFN-γ-induced inflammatory shock (mortality, serum chemistry, blood counts, flow cytometry, histopathology); design: species or system mice; settings: i.p. 10 μg TNF-α, 20 μg IFN-γ, or both
Description: In vivo TNF-α and IFN-γ-Induced Inflammatory Shock. Six- to eight-week-old mice of the indicated genotypes were injected intraperitoneally with 10 μg TNF-α alone, 20 μg IFN-γ alone, or TNF-α+IFN-γ diluted in endotoxin-free PBS. Animals were under permanent observation, and survival was assessed every 30 minutes. Blood was collected 5 hours after cytokine injection. Blood composition was analyzed using an automated hematology analyzer. Serum lactate dehydrogenase (LDH), alanine aminotransferase (ALT), aspartate aminotransferase (AST), blood urea nitrogen (BUN), and ferritin were analyzed by colorimetry using respective kits (LDH, ALT, AST, and BUN, all from HORIBA; and ferritin from Abcam) according to the manufacturer's instructions.
Flow Cytometry Methods. Peripheral blood was mixed with ACK lysis buffer for 3 minutes to lyse the red blood cells (RBCs). The cells were then stained with monoclonal antibodies for the following markers for flow cytometry: CD11b from eBioscience; F4/80, Ly6C, and Ly6G from BioLegend; and CD19, TCRb, and CD45.2 from Tonbo Biosciences. […]
Histopathology Methods. […] The number of cleaved caspase-3- and TUNEL-positive cells in five high power fields (20×) were counted per mouse.

[6] = test system: COLO-205 cell tumors; experiment: NSG mouse xenograft tumor model, intratumoral cytokines; format: in vivo, NSG mice; settings: intra-tumoral administration on day 12, 14 and 16 post-transplantation
Description: NSG Mouse Xenograft Tumor Model. The NSG mice (NOD/SCID-gamma null mouse strain that lacks […]) were used as the model recipients for the subcutaneous transplantation of human COLO-205 cancer cells. Briefly, 8- to 10-week-old NSG mice were shaved on their lower backs and transplanted with 2×10^6 COLO-205 cells in 200 μl of medium prepared by mixing (1:1) RPMI and a solubilized basement membrane preparation sold under the tradename MATRIGEL® (BD Bioscience). The mice were monitored regularly for engraftment and growth of COLO-205 cancer cell tumors. The recipient mice were divided into four groups and treated intratumorally with injection of the indicated cytokines or PBS (groups: (i) PBS, (ii) TNF-α, (iii) IFN-γ, or (iv) TNF-α(and IFN-γ) on day 12, 14 and 16 post-transplantation of the tumor cells. The tumor growth was monitored and measured using digital calipers, and the volume of the tumors were calculated using the formula: volume=(length×width^2)×½.

Molecule | inhibition of cell death in response to TNF-α and IFN-γ treatment [1] | inhibition of cancer cell death induced by TNF-α plus IFN-γ treatment [2] | induction of cell death in BMDMs [1] | cleavage of GSDMD and GSDME (combination: GSDME) [3] | phosphorylation of MLKL [3] | cleavage of caspase-3, -7 and -8 [3] | activation of biochemical markers of PANoptosis in HCT-116 [4] | mortality in mice [5] | other results
CC(=N)NCc1cccc(CN)c1 [1400W, N-[[3-(aminomethyl)phenyl]methyl]-ethanimidamide] | inhibited cell death | failed to inhibit |  |  |  |  |  |  | 
COC(=O)[C@@H](N)CCCNC(=N)N[N+](=O)[O-] [L-NAME, N5-[imino(nitroamino)methyl]-L-ornithine methyl ester] | inhibited cell death | failed to inhibit |  |  |  |  |  |  | 
[NH-]c1c[n+](N2CCOCC2)no1 [SIN-1] |  |  |  |  |  |  |  |  | kinetics of cell death induced by NO donor ([1]; wild-type BMDMs, increasing concentrations of SIN-1): proportional to the NO concentration
IFN-γ: recombinant IFN-γ protein (Peprotech) |  |  | failed to induce cell death | did not induce robust cleavage | failed to induce robust MLKL phosphorylation | reduced cleavage | only weak activation |  | 
TNF-α |  |  | failed to induce cell death | did not induce robust cleavage | failed to induce robust MLKL phosphorylation | reduced cleavage | only weak activation | did not cause significant mortality | tumor weight [6]: minor but significant reduction
B1 |  |  |  |  |  |  |  | did not cause significant mortality | 
